Measurements: patent publication US6313111A, “Substituted 6H-1,3,4-thiadiazine-2-amines, the use thereof as anaesthetising, cardiovascular and hypometabolic agents, and pharmaceutical composition containing them” (priority 1998, dated 2001)
Where a name gives a salt, the structure may show the parent alone.

Experiment: rectal (body) temperature of mice measured with medicinal electrothermometer TREM-1
Type: in vivo, mice of the BALB line
Procedure: In all cases tests were carried out on mice of the BALB line of 3-4 month age. […] In the case of water-soluble compounds, aqueous solutions of the test compounds were injected intraperitoneally (i.p.), while water-insoluble compounds were introduced orally (p.o.).
Rectal temperature changes (absolute magnitues in ° C.) were measured using a medicinal electrothermometer TREM-1 (Table 1). The rate of oxygen consumption was monitored by measuring concentration of oxygen in a closed testing unit with optic-acoustic gas analyser MN 5130. The data on oxygen consumption are given in percents relative to the starting content of oxygen taken as 100%. (Table 2).
Rectal temperature of mice was followed in dynamics after 5, 15, 30, 60, 120, 180, 240, 300, and 360 minutes (Table 3). […] The same decrease in temperature at 190 mg/kg dosage was reached after 15 minutes; in 1.5 hours it reached 22-25° C. and maintained this level over the next 5 hours, that is 13-17° C. below the initial value. After one day, body temperature was restored to the value of 94-96% of initial.

With c1ccc(C2=NN=C(N3CCOCC3)SC2)cc1 [Compound 1, 2-Morpholino-5-phenyl-6H-1,3,4-thiadiazine, hydrobromide] as the molecule, how does the “body temperature (T)” value (10.0 mg/kg i.p., 0 min) read?
Its value is 37.5 ± 0.2 °C.

What about the “body temperature (T)” value (10.0 mg/kg i.p., 10 min) of the same molecule?
Its value is 37.8 ± 0.1 °C.

What about the “body temperature (T)” value (10.0 mg/kg i.p., 20 min) of the same molecule?
Its value is 37.4 ± 0.2 °C.

What about the “body temperature (T)” value (10.0 mg/kg i.p., 30 min) of the same molecule?
Its value is 37.3 °C.

And the “body temperature (T)” value (10.0 mg/kg i.p., 40 min)?
The value was 37.5 ± 0.1 °C.

What about the “body temperature (T)” value (10.0 mg/kg i.p., 60 min) of the same molecule?
The value was 37.5 ± 0.1 °C.

And the “body temperature (T)” value (10.0 mg/kg i.p., 90 min)?
The value was 37.4 ± 0.2 °C.

And the “body temperature (T)” value (10.0 mg/kg i.p., 120 min)?
The value was 36.9 ± 0.1 °C.

What about the “body temperature (T)” value (10.0 mg/kg i.p., 180 min) of the same molecule?
The value was 36.9 ± 0.2 °C.

And the “body temperature (T)” value (10.0 mg/kg i.p., 210 min)?
The value was 36.4 °C.

And the “body temperature (T)” value (10.0 mg/kg i.p., 240 min)?
The value was 36.7 ± 0.2 °C.

What about the “body temperature (T)” value (10.0 mg/kg i.p., 270 min) of the same molecule?
The value was 36.7 ± 0.2 °C.

And the “body temperature (T)” value (10.0 mg/kg i.p., 300 min)?
Its value is 36.9 ± 0.1 °C.

And the “body temperature (T)” value (10.0 mg/kg i.p., 330 min)?
The value was 36.8 ± 0.2 °C.

And the “body temperature (T)” value (10.0 mg/kg i.p., 390 min)?
The value was 36.7 ± 0.2 °C.

What about the “body temperature (T)” value (35.0 mg/kg i.p., 0 min) of the same molecule?
Its value is 37.7 ± 0.2 °C.

And the “body temperature (T)” value (35.0 mg/kg i.p., 10 min)?
Its value is 37.2 ± 0.2 °C.

And the “body temperature (T)” value (35.0 mg/kg i.p., 20 min)?
Its value is 36.6 ± 0.4 °C.

And the “body temperature (T)” value (35.0 mg/kg i.p., 30 min)?
The value was 35.9 °C.

And the “body temperature (T)” value (35.0 mg/kg i.p., 40 min)?
Its value is 36.6 ± 0.1 °C.

What about the “body temperature (T)” value (35.0 mg/kg i.p., 60 min) of the same molecule?
The value was 37.0 ± 0.3 °C.

And the “body temperature (T)” value (35.0 mg/kg i.p., 90 min)?
Its value is 37.3 ± 0.1 °C.

What about the “body temperature (T)” value (35.0 mg/kg i.p., 120 min) of the same molecule?
Its value is 37.1 ± 0.3 °C.

What about the “body temperature (T)” value (35.0 mg/kg i.p., 180 min) of the same molecule?
Its value is 36.9 ± 0.2 °C.

And the “body temperature (T)” value (35.0 mg/kg i.p., 210 min)?
The value was 36.6 ± 0.1 °C.

What about the “body temperature (T)” value (35.0 mg/kg i.p., 240 min) of the same molecule?
Its value is 36.9 ± 0.4 °C.

And the “body temperature (T)” value (35.0 mg/kg i.p., 270 min)?
Its value is 36.8 ± 0.1 °C.

And the “body temperature (T)” value (35.0 mg/kg i.p., 300 min)?
The value was 36.9 ± 0.1 °C.

What about the “body temperature (T)” value (35.0 mg/kg i.p., 330 min) of the same molecule?
The value was 37.2 ± 0.2 °C.

What about the “body temperature (T)” value (35.0 mg/kg i.p., 390 min) of the same molecule?
Its value is 37.1 ± 0.1 °C.

What about the “body temperature (T)” value (70.0 mg/kg i.p., 0 min) of the same molecule?
Its value is 37.5 ± 0.2 °C.

And the “body temperature (T)” value (70.0 mg/kg i.p., 10 min)?
Its value is 36.2 ± 0.3 °C.

What about the “body temperature (T)” value (70.0 mg/kg i.p., 20 min) of the same molecule?
Its value is 35.4 ± 0.5 °C.

What about the “body temperature (T)” value (70.0 mg/kg i.p., 30 min) of the same molecule?
Its value is 34.5 °C.

And the “body temperature (T)” value (70.0 mg/kg i.p., 40 min)?
Its value is 35.0 ± 0.9 °C.

What about the “body temperature (T)” value (70.0 mg/kg i.p., 60 min) of the same molecule?
The value was 35.6 ± 0.6 °C.

And the “body temperature (T)” value (70.0 mg/kg i.p., 90 min)?
The value was 36.1 ± 0.2 °C.

And the “body temperature (T)” value (70.0 mg/kg i.p., 120 min)?
Its value is 37.0 ± 0.2 °C.

And the “body temperature (T)” value (70.0 mg/kg i.p., 180 min)?
The value was 36.7 ± 0.6 °C.

What about the “body temperature (T)” value (70.0 mg/kg i.p., 210 min) of the same molecule?
Its value is 36.9 °C.

And the “body temperature (T)” value (70.0 mg/kg i.p., 240 min)?
The value was 37.0 ± 0.1 °C.

And the “body temperature (T)” value (70.0 mg/kg i.p., 270 min)?
Its value is 36.6 ± 0.2 °C.

And the “body temperature (T)” value (70.0 mg/kg i.p., 300 min)?
Its value is 37.0 ± 0.1 °C.

What about the “body temperature (T)” value (70.0 mg/kg i.p., 330 min) of the same molecule?
Its value is 37.2 ± 0.1 °C.

What about the “body temperature (T)” value (70.0 mg/kg i.p., 390 min) of the same molecule?
Its value is 37.1 ± 0.1 °C.

And the “time of maximum drop of body temperature” value (140 mg/kg i.p.)?
The value was 40 to 60 min.

What about the “body temperature (T)” value (140.0 mg/kg i.p., 0 min) of the same molecule?
Its value is 37.9 ± 0.1 °C.

What about the “body temperature (T)” value (140.0 mg/kg i.p., 10 min) of the same molecule?
The value was 34.5 ± 0.2 °C.

What about the “body temperature (T)” value (140.0 mg/kg i.p., 20 min) of the same molecule?
Its value is 32.6 ± 0.4 °C.

What about the “body temperature (T)” value (140.0 mg/kg i.p., 30 min) of the same molecule?
The value was 30.8 °C.

And the “body temperature (T)” value (140.0 mg/kg i.p., 40 min)?
The value was 30.2 ± 0.1 °C.

What about the “body temperature (T)” value (140.0 mg/kg i.p., 60 min) of the same molecule?
The value was 30.0 ± 0.1 °C.

And the “body temperature (T)” value (140.0 mg/kg i.p., 90 min)?
Its value is 31.5 ± 0.9 °C.

What about the “body temperature (T)” value (140.0 mg/kg i.p., 120 min) of the same molecule?
The value was 33.6 ± 0.7 °C.

And the “body temperature (T)” value (140.0 mg/kg i.p., 180 min)?
Its value is 35.2 ± 0.5 °C.

What about the “body temperature (T)” value (140.0 mg/kg i.p., 210 min) of the same molecule?
The value was 36.1 °C.

And the “body temperature (T)” value (140.0 mg/kg i.p., 240 min)?
Its value is 36.5 ± 0.2 °C.

What about the “body temperature (T)” value (140.0 mg/kg i.p., 270 min) of the same molecule?
Its value is 36.6 ± 0.2 °C.

What about the “body temperature (T)” value (140.0 mg/kg i.p., 300 min) of the same molecule?
Its value is 36.9 ± 0.1 °C.

And the “body temperature (T)” value (140.0 mg/kg i.p., 330 min)?
Its value is 37.6 ± 0.2 °C.

What about the “body temperature (T)” value (140.0 mg/kg i.p., 390 min) of the same molecule?
The value was 37.2 ± 0.2 °C.

What about the “maximum drop of body temperature” value (140 mg/kg i.p., after 40-60 minutes) of the same molecule?
Its value is 7-8 °C.

What about the “body temperature (T)” value (190 mg/kg (1/2 LD16) i.p., 5 min) of the same molecule?
The value was 34.9 ± 0.0 °C.

What about the “body temperature (T)” value (190 mg/kg (1/2 LD16) i.p., 15 min) of the same molecule?
The value was 30.8 ± 0.2 °C.

And the “time to reach the same decrease in temperature (7-8° C.)” value (190 mg/kg i.p.)?
Its value is 15 min.

What about the “body temperature (T)” value (190.0 mg/kg i.p., 0 min) of the same molecule?
Its value is 39.2 ± 0.1 °C.

And the “body temperature (T)” value (190.0 mg/kg i.p., 10 min)?
Its value is 34.9 ± 0.0 °C.
